The values that follow come from ChEMBL document CHEMBL4425146, “Synthesis and biological evaluation of N(9)-substituted harmine derivatives as potential anticancer agents” (Bioorg Med Chem Lett, 2016).

What is called IC50 is the concentration that inhibits the measured activity by half.

Where only a bound is given, the exact number is not on record here.

In one assay the test system is SGC-7901. Description: Cytotoxicity against human SGC7901 cells assessed as inhibition of cell growth after 48 hrs by MTT assay. In kind it is functional, cell-based. Particulars: SGC-7901, 48 h. (In general: Tetrazolium assays rely on reduction of a dye to a coloured formazan, in cell work by metabolically active cells.)
The test system of assay [1] is A549. Kind of assay: Cytotoxicity against human A549 cells assessed as inhibition of cell growth after 48 hrs by MTT assay. It is filed as functional, cell-based. The following applies: A549, 48 h.
Assay [2] concerns MCF7. Description: Cytotoxicity against human MCF7 cells assessed as inhibition of cell growth after 48 hrs by MTT assay. In kind it is functional, cell-based. The following applies: MCF7, 48 h.
In another assay the test system is SMMC-7721. Description: Cytotoxicity against human SMMC7721 cells assessed as inhibition of cell growth after 48 hrs by MTT assay. In kind it is functional, cell-based. Particulars: SMMC-7721, 48 h.
A further assay relates to COLO 205. Kind of assay: Cytotoxicity against human COLO205 cells assessed as inhibition of cell growth after 48 hrs by MTT assay. Particulars: COLO 205, 48 h. It is filed as functional, cell-based.
Assay [3] deals with HL-60. Kind of assay: Cytotoxicity against human HL60 cells assessed as inhibition of cell growth after 48 hrs by MTT assay. It is filed as functional, cell-based. The following applies: HL-60, 48 h.
Assay [4] relates to MCF7. Kind of assay: Cytotoxicity against human MCF7 cells assessed as inhibition of cell growth. It is filed as functional, cell-based.
The test system of assay [5] is A549. Kind of assay: Induction of apoptosis in human A549 cells assessed as early apoptotic cells at 0.5 uM after 48 hrs by Annexin V-FITC/propidium iodide staining based flow cytometry (reference value: 0.57 %). In kind it is functional. On the technique in general: A flow cytometer gives signals particle by particle.
Assay [6] has as its system A549. Kind of assay: Induction of apoptosis in human A549 cells assessed as viable cells at 0.1 uM after 48 hrs by Annexin V-FITC/propidium iodide staining based flow cytometry (reference value: 96.08 %). In kind it is functional. The following applies: A549, 48 h, read-out: Activity.
Assay [7] relates to A549. Kind of assay: Cell cycle arrest in human A549 cells assessed as accumulation at G2/M phase at 1 uM after 48 hrs by propidium iodide staining based flow cytometry (reference value: 14.62%). In kind it is functional.
Assay [8] relates to A549. Kind of assay: Cell cycle arrest in human A549 cells assessed as accumulation at sub-G1 phase at 1 uM after 48 hrs by propidium iodide staining based flow cytometry (reference value: 2.78 %). It is filed as functional.
Assay [9] concerns A549. Kind of assay: Cell cycle arrest in human A549 cells assessed as accumulation at G2/M phase after 48 hrs by propidium iodide staining based flow cytometry. It is filed as functional.
Assay [10] relates to A549. Description: Cell cycle arrest in human A549 cells assessed as accumulation at sub-G1 phase at 0.5 uM after 48 hrs by propidium iodide staining based flow cytometry (reference value: 2.78 %). It is filed as functional.
In assay [11] the test system is A549. Kind of assay: Cell cycle arrest in human A549 cells assessed as accumulation at G0/G1 phase at 0.1 uM after 48 hrs by propidium iodide staining based flow cytometry (reference value: 53.54 %). It is filed as functional.
Assay [12] relates to A549. Description: Cell cycle arrest in human A549 cells assessed as accumulation at G2/M phase at 0.5 uM after 48 hrs by propidium iodide staining based flow cytometry (reference value: 14.62%). In kind it is functional.
Assay [13] deals with A549. Description: Cell cycle arrest in human A549 cells assessed as accumulation at sub-G1 phase after 48 hrs by propidium iodide staining based flow cytometry. It is filed as functional.
The subject of assay [14] is A549. Description: Induction of apoptosis in human A549 cells after 48 hrs by Annexin V-FITC/propidium iodide staining based flow cytometry. It is filed as functional, cell-based.
The subject of assay [15] is A549. Description: Induction of apoptosis in human A549 cells assessed as viable cells at 1 uM after 48 hrs by Annexin V-FITC/propidium iodide staining based flow cytometry (reference value: 96.08 %). Particulars: A549, 48 h, read-out: Activity. In kind it is functional.
Assay [16] concerns A549. Kind of assay: Induction of apoptosis in human A549 cells assessed as late apoptotic cells at 0.1 uM after 48 hrs by Annexin V-FITC/propidium iodide staining based flow cytometry (reference value: 2.70 %). It is filed as functional.
Assay [17] concerns A549. Description: Cell cycle arrest in human A549 cells assessed as accumulation at S phase at 0.5 uM after 48 hrs by propidium iodide staining based flow cytometry (reference value: 30.85 %). In kind it is functional.
The subject of assay [18] is A549. Description: Induction of apoptosis in human A549 cells assessed as late apoptotic cells at 1 uM after 48 hrs by Annexin V-FITC/propidium iodide staining based flow cytometry (reference value: 2.70 %). In kind it is functional.
Assay [19] deals with A549. Kind of assay: Cell cycle arrest in human A549 cells assessed as accumulation at S phase at 0.1 uM after 48 hrs by propidium iodide staining based flow cytometry (reference value: 30.85 %). It is filed as functional.
Assay [20] relates to A549. Description: Induction of apoptosis in human A549 cells assessed as early apoptotic cells at 1 uM after 48 hrs by Annexin V-FITC/propidium iodide staining based flow cytometry (reference value: 0.57 %). In kind it is functional.
The test system of assay [21] is A549. Kind of assay: Cell cycle arrest in human A549 cells assessed as accumulation at sub-G1 phase at 0.1 uM after 48 hrs by propidium iodide staining based flow cytometry (reference value: 2.78 %). In kind it is functional.
Assay [22] deals with A549. Description: Induction of apoptosis in human A549 cells assessed as early apoptotic cells at 0.1 uM after 48 hrs by Annexin V-FITC/propidium iodide staining based flow cytometry (reference value: 0.57 %). In kind it is functional.
Assay [23] relates to A549. Description: Induction of apoptosis in human A549 cells assessed as viable cells at 0.5 uM after 48 hrs by Annexin V-FITC/propidium iodide staining based flow cytometry (reference value: 96.08 %). In kind it is functional. Particulars: A549, 48 h, read-out: Activity.
Assay [24] deals with A549. Kind of assay: Cell cycle arrest in human A549 cells assessed as accumulation at G0/G1 phase at 0.5 uM after 48 hrs by propidium iodide staining based flow cytometry (reference value: 53.54 %). In kind it is functional.
For assay [25], the system named is A549. Description: Cell cycle arrest in human A549 cells assessed as accumulation at S phase at 1 uM after 48 hrs by propidium iodide staining based flow cytometry (reference value: 30.85 %). In kind it is functional.
Assay [26] concerns A549. Description: Induction of apoptosis in human A549 cells assessed as late apoptotic cells at 0.5 uM after 48 hrs by Annexin V-FITC/propidium iodide staining based flow cytometry (reference value: 2.70 %). In kind it is functional.
Assay [27] concerns A549. Kind of assay: Cell cycle arrest in human A549 cells assessed as accumulation at G0/G1 phase at 1 uM after 48 hrs by propidium iodide staining based flow cytometry (reference value: 53.54 %). It is filed as functional.
Assay [28] relates to A549. Description: Cell cycle arrest in human A549 cells assessed as accumulation at G2/M phase at 0.1 uM after 48 hrs by propidium iodide staining based flow cytometry (reference value: 14.62%). It is filed as functional.
The test system of assay [29] is HL-60. Kind of assay: Cytotoxicity against human HL60 cells assessed as inhibition of cell growth after 3 days by MTT assay. The following applies: HL-60, 72 h. It is filed as functional, cell-based.
In another assay the test system is P338. Kind of assay: Cytotoxicity against mouse […] cells assessed as inhibition of cell growth after 3 days by MTT assay. Particulars: 72 h. In kind it is functional, cell-based.

Regarding `COc1ccc2c3ccnc(C)c3n(Cc3ccc(F)cc3)c2c1`, the IC50 in the assay with SGC-7901 was 7.21 µM; in the assay on A549 [1] it was 8.73 µM; in the assay with MCF7 [2], greater than 50 µM; in the assay with SMMC-7721, greater than 50 µM.
With `COc1ccc2c3ccnc(C)c3n(Cc3ccccc3)c2c1`, the IC50 in the assay with SGC-7901 is 38.2 µM; with A549 [1], 7.49 µM; in the assay on MCF7 [2] it was greater than 50 µM; with SMMC-7721, 45.6 µM.
On the same counts, the results for `CCCCn1c2cc(OC)ccc2c2ccnc(C)c21` are 11.3 µM, 6.09 µM, greater than 50 µM and 28.6 µM.
Regarding `COc1cc(Cn2c3ccc(C(C)=O)cc3c3ccnc(C)c32)cc(OC)c1OC`, the IC50 was 520 nM in the assay with COLO 205 and 30 nM in the assay with HL-60 [3].
For the compound `COc1ccc2c3ccnc(C)c3n(C(C)=O)c2c1`, the IC50 in the assay on SGC-7901 was 6.39 µM; in the assay on A549 [1], 1.27 µM; with MCF7 [2] it was greater than 50 µM; in the assay on SMMC-7721, greater than 50 µM.
In the case of `OCc1ccc2c(c1)c1ccccc1n2Cc1ccc(Cl)nc1`, in the assay on MCF7 [4], the IC50 lay in the range of 20 to 30 µM.
With `COc1ccc2c3ccnc(C)c3n(C(=O)c3ccc(C)cc3)c2c1`, the IC50 was 2.88 µM in the assay with SGC-7901, 1.33 µM with A549 [1], greater than 50 µM in the assay with MCF7 [2] and greater than 50 µM in the assay with SMMC-7721.
Regarding `CCCCCCCCCCCC(=O)n1c2cc(OC)ccc2c2ccnc(C)c21`, the IC50 in the assay on SGC-7901 is 8.76 µM; in the assay with A549 [1] it was 14.6 µM; with MCF7 [2], greater than 50 µM; in the assay on SMMC-7721, 49.1 µM.
For `COc1ccc2c3ccnc(C)c3n(Cc3ccccc3C)c2c1`, in that order: 17.2 µM, 8.34 µM, greater than 50 µM and 39.5 µM.
On the same counts, the results for `CCn1c2cc(OC)ccc2c2ccnc(C)c21` are 29.6 µM, 26.4 µM, greater than 50 µM and 24 µM.
As to `COc1ccc2c3ccnc(C)c3n(S(=O)(=O)c3ccc(C)cc3)c2c1`, the Activity is 11.5% in the assay with A549 [5]; 36.64% with A549 [7]; 24.88% in the assay on A549 [8]; “Dose-dependent effect” in the assay with A549 [9]; 21.15% with A549 [10]; 53.31% with A549 [11]. For the same compound, the Activity with A549 [12] is 31.09%; in the assay with A549 [13], “Dose-dependent effect”; in the assay with A549 [14] it was “Dose-dependent effect”; with A549 [16], 18.76%; in the assay on A549 [17], 31.93%; with A549 [18] it was 54.11%. In addition, the Activity in the assay with A549 [19] is listed as 30.27%; in the assay on A549 [20] it was 17.59%; in the assay with A549 [21] it was 8.63%; in the assay on A549 [22], 2.68%; with A549 [24], 36.99%; in the assay on A549 [25], 25.9%. Moreover, the results for the Activity in the assay with A549 [26], in the assay with A549 [27] and with A549 [28] were 42.79%, 36.46% and 16.42%, respectively. In the assay with A549 [6], the viability at 0.1 µM is 73.1%. Also, the IC50 with SGC-7901 was 1.56 µM; in the assay with A549 [1] it was 0.48 µM; in the assay on MCF7 [2], greater than 50 µM; with SMMC-7721, greater than 50 µM. Besides, the viability at 1 µM in the assay with A549 [15] is 28.2%. Also, the viability at 0.5 µM in the assay on A549 [23] came out at 45%.
Take `COc1ccc2c3ccnc(C)c3n(C(=O)c3ccccc3)c2c1`: the IC50 was 7.69 µM with SGC-7901, 2.81 µM in the assay with A549 [1], greater than 50 µM in the assay with MCF7 [2] and greater than 50 µM with SMMC-7721.
`COc1ccc2c3ccnc(C)c3n(CCCCCl)c2c1`: the IC50 in the assay with SGC-7901 was found to be 7.21 µM; in the assay on A549 [1], 8.73 µM; with MCF7 [2], 2.94 µM; in the assay with SMMC-7721 it was 17.9 µM.
Consider `COc1ccc(S(=O)(=O)Nc2cccnc2Nc2ccc(O)cc2)cc1` [ABT-751], for which the values for the IC50 in the assay with HL-60 [29] and in the assay on P338 were 200 nM and 160 nM, respectively.
